# Measurements taken from ChEMBL document CHEMBL6127124, “Structure-Activity Relationships and Discovery of (S)-5-(tert-Butyl)-11-(difluoromethoxy)-9-methoxy-2-oxo-1,2,5,6-tetrahydropyrido[2',1':2,3]imidazo[4,5-h]quinoline-3-carboxylic Acid (AB-161), a Novel Orally Available and Liver-Centric HBV RNA Destabilizer” (J Med Chem, 2024).
# Tests used:
# [1] = system: Hepatitis B virus; test: Antiviral activity against HBV infected in human HepG2.2.15 cells assessed as reduction in HBsAg level incubated for 6 days with media and compound replenishment on third day by CLIA; assay type: functional, organism-based; conditions: HepG2.2.15, 144 h; for EC90: time 6 day
# [2] = Cytotoxicity in human HepG2.2.15 cells by Cell Titer-Glo assay; assay type: toxicity, cell-based, HepG2 2.2.15
# [3] = Metabolic stability in human liver microsomes assessed as clearance at 0.3 uM preincubated for 5 mins followed by NADPH addition measured upto 60 mins by LC-MS/MS analysis; assay type: ADME, Microsome; conditions: time < 65 min, read-out: CLH
# [4] = Metabolic stability in Sprague-Dawley rat liver microsomes assessed as clearance at 0.3 uM preincubated for 5 mins followed by NADPH addition measured upto 60 mins by LC-MS/MS analysis; assay type: ADME, Microsome; conditions: time < 65 min, read-out: CLH
# [5] = Metabolic stability in CD-1 mouse liver microsomes assessed as clearance at 0.3 uM preincubated for 5 mins followed by NADPH addition measured upto 60 mins by LC-MS/MS analysis; assay type: ADME, Microsome; conditions: time < 65 min, read-out: CLH
# [6] = AUC (0 to 24 hrs) in CD-1 mouse at 10 mg/kg, po measured for 24 hrs by LC-MS/MS analysis; assay type: ADME, organism-based; conditions: in vivo
# [7] = Ratio of total drug concentration in liver to plasma in CD-1 mouse at 10 mg/kg, po measured for 12 hrs by LC-MS/MS analysis; assay type: ADME, organism-based; conditions: liver and plasma
# [8] = Selectivity ratio of drug concentration in liver in CD-1 mouse at 10 mg/kg, po measured for 12 hrs to EC90 for antiviral activity against HBV infected in human HepG2.2.15 cells assessed as reduction in HBsAg level; assay type: ADME, organism-based; conditions: in vivo
# [9] = Ratio of total drug concentration in liver to plasma in CD-1 mouse at 10 mg/kg, po measured for 24 hrs by LC-MS/MS analysis; assay type: ADME, organism-based; conditions: CD-1, mouse, liver and plasma
# [10] = Selectivity ratio of drug concentration in liver in CD-1 mouse at 10 mg/kg, po measured for 24 hrs to EC90 for antiviral activity against HBV infected in human HepG2.2.15 cells assessed as reduction in HBsAg level; assay type: ADME, organism-based; conditions: in vivo
# [11] = system: Hepatitis B virus; test: Antiviral activity against HBV infected in human HepG2.2.15 cells assessed as reduction in HBsAg level incubated for 6 days with media and compound replenishment on third day in presence of 40 percent mouse serum by CLIA; assay type: functional, organism-based; conditions: HepG2.2.15, 144 h
# [12] = Metabolic stability in cynomolgous monkey liver microsomes assessed as clearance at 0.3 uM preincubated for 5 mins followed by NADPH addition measured upto 60 mins by LC-MS/MS analysis; assay type: ADME, Macaca fascicularis, Microsome; conditions: cynomolgus monkey, read-out: CLH
# [13] = Kinetic solubility of compound in aqueous buffer at pH 7.4 at 200 uM incubated for 24 hrs by UPLC UV analysis; assay type: physicochemical; conditions: read-out: Kinetic_solubility
# [14] = target: T1, Cytochrome P450 2B6 (Homo sapiens, UniProt P20813); test: Inhibition of CYP2B6 in human liver microsomes using bupropion as substrate preincubated for 30 min followed by NADPH addition measured after 12 mins by LC-MS/MS analysis; assay type: ADME, Microsome
# T1 sequence (P20813 whole entry): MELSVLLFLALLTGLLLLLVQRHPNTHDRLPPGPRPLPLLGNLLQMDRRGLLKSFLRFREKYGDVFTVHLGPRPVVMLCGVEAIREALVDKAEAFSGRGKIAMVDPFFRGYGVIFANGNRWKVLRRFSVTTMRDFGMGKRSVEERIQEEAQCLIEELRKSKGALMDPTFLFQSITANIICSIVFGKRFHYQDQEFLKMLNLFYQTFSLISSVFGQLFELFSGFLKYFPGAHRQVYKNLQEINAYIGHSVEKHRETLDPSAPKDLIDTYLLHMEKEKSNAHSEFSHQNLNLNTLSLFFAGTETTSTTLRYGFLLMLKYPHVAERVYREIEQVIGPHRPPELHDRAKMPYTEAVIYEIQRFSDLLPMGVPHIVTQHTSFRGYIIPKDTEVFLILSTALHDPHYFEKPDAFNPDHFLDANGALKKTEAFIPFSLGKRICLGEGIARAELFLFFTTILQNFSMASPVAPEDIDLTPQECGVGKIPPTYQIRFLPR
# [15] = Permeability across apical to basal side in human Caco-2 cells at 5 uM incubated for 120 mins by LC-MS/MS analysis; assay type: ADME, cell-based; conditions: read-out: permeability
# [16] = Permeability across basal to apical side in human Caco-2 cells at 5 uM incubated for 120 mins by LC-MS/MS analysis; assay type: ADME, cell-based; conditions: read-out: permeability
# [17] = Plasma protein binding in human assessed as unbound fraction at 2 uM incubated for 6 hrs by equilibrium dialysis; assay type: ADME, cell-free
# [18] = Plasma protein binding in monkey assessed as unbound fraction at 2 uM incubated for 6 hrs by equilibrium dialysis; assay type: ADME, cell-free, Macaca mulatta; conditions: rhesus monkey
# [19] = Plasma protein binding in rat assessed as unbound fraction at 2 uM incubated for 6 hrs by equilibrium dialysis; assay type: ADME, cell-free
# [20] = Plasma protein binding in mouse assessed as unbound fraction at 2 uM incubated for 6 hrs by equilibrium dialysis; assay type: ADME, cell-free
# [21] = system: Hepatitis B virus; test: Antiviral activity against HBV genotype D in immuno-competent C57BL/6 mouse model of chronic HBV assessed as log10 reduction in serum HBsAg production at 1 mg/kg, po qd for 14 days measured 24 hrs post-last dose by EIA relative to control; assay type: functional; conditions: time 15 day
# [22] = system: Hepatitis B virus; test: Antiviral activity against HBV genotype D in immuno-competent C57BL/6 mouse model of chronic HBV assessed as log10 reduction in serum HBsAg production at 10 mg/kg, po qd for 14 days measured 24 hrs post-last dose by EIA relative to control; assay type: functional; conditions: time 15 day
# [23] = Drug concentration in CD-1 mouse plasma at 10 mg/kg, po measured for 24 hrs by LC-MS/MS analysis; assay type: ADME, organism-based; conditions: read-out: Ct
# [24] = Drug concentration in CD-1 mouse liver at 10 mg/kg, po measured for 24 hrs by LC-MS/MS analysis; assay type: ADME, organism-based; conditions: read-out: Ct
# [25] = Drug concentration in Beagle dog plasma at 10 mg/kg, po measured for 12 hrs by LC-MS/MS analysis; assay type: ADME, organism-based, Canis lupus familiaris; conditions: read-out: Ct
# [26] = Drug concentration in Beagle dog liver at 10 mg/kg, po measured for 12 hrs by LC-MS/MS analysis; assay type: ADME, organism-based, Canis lupus familiaris; conditions: read-out: Ct
# [27] = Drug concentration in Beagle dog kidney at 10 mg/kg, po measured for 12 hrs by LC-MS/MS analysis; assay type: ADME, organism-based, Canis lupus familiaris; conditions: read-out: Ct
# [28] = Drug concentration in Beagle dog lung at 10 mg/kg, po measured for 12 hrs by LC-MS/MS analysis; assay type: ADME, organism-based, Canis lupus familiaris; conditions: read-out: Ct
# [29] = Ratio of drug concentration in liver to plasma of CD-1 mouse at 10 mg/kg, po measured for 24 hrs by LC-MS/MS analysis; assay type: ADME, organism-based; conditions: liver and plasma
# [30] = Ratio of drug concentration in liver to plasma of Beagle dog at 10 mg/kg, po measured for 12 hrs by LC-MS/MS analysis; assay type: ADME, organism-based, Canis lupus familiaris; conditions: liver (relative to plasma)
# [31] = Ratio of drug concentration in kidney to plasma of Beagle dog at 10 mg/kg, po measured for 12 hrs by LC-MS/MS analysis; assay type: ADME, organism-based, Canis lupus familiaris; conditions: kidney (relative to plasma)
# [32] = Ratio of drug concentration in lung to plasma of Beagle dog at 10 mg/kg, po measured for 12 hrs by LC-MS/MS analysis; assay type: ADME, organism-based, Canis lupus familiaris; conditions: lung (relative to plasma)
EC50 [1] [nM],EC90 [1] [nM],microsomal CLint at 0.3 µM [3] [µL/min/mg],microsomal CLint at 0.3 µM [4] [µL/min/mg],microsomal CLint at 0.3 µM [5] [µL/min/mg],AUC(0-t) at 24 h [6] [ng·h/mL],Kp at 12 h [7],Kp at 24 h [9],EC50 [11] [nM],microsomal CLint at 0.3 µM [12] [µL/min/mg],"solubility kinetic at 24 h, 200 µM [13] [µM]",IC50 [14] [nM],"Papp A→B at 2 h, 5 µM [15] [×10⁻⁶ cm/s]","Papp B→A at 2 h, 5 µM [16] [×10⁻⁶ cm/s]","fraction unbound at 6 h, 2 µM [17]","fraction unbound at 6 h, 2 µM [18]","fraction unbound at 6 h, 2 µM [19]",Compound,CC50 [2] [nM],Ratio [8],Ratio [10],other results
2.2,28,4,3,7,18900,109,184,40,2,183,> 25000,4.4,54.5,0.05,0.02,0.06,COc1cc(OC(F)F)c2nc3c(n2c1)C[C@@H](C(C)(C)C)c1cc(C(=O)O)c(=O)[nH]c1-3,> 50000,1675,662,"fraction unbound at 6 h, 2 µM [20]: 0.02; log(activity) [21]: 0.34; log(activity) [22]: 0.71; concentration at 24 h [23]: 56.8 ng/g; concentration at 24 h [24]: 10400 ng/g; concentration at 12 h [25]: 272 ng/g; concentration at 12 h [26]: 2910 ng/g; concentration at 12 h [27]: 1180 ng/g; concentration at 12 h [28]: 135 ng/g; Kp at 24 h [29]: 184; Kp at 12 h [30]: 11; Kp at 12 h [31]: 4.3; Kp at 12 h [32]: 0.5"
0.6,6.1,1,5,1,20500,56,67,6.8,4,154,> 25000,26.6,65.6,0.05,0.02,0.02,CC(C)(C)[C@@H]1Cc2c(nc3c(C(F)(F)F)cc(C4CC4)cn23)-c2[nH]c(=O)c(C(=O)O)cc21,48000,12480,2089,"fraction unbound at 6 h, 2 µM [20]: 0.01; log(activity) [21]: 0.47; log(activity) [22]: 1.07; concentration at 24 h [23]: 85.6 ng/g; concentration at 24 h [24]: 5740 ng/g; concentration at 12 h [25]: 110 ng/g; concentration at 12 h [26]: 275 ng/g; concentration at 12 h [27]: 347 ng/g; concentration at 12 h [28]: 73 ng/g; Kp at 24 h [29]: 67; Kp at 12 h [30]: 2.5; Kp at 12 h [31]: 3.2; Kp at 12 h [32]: 0.7"

Compound,EC50 [1] [nM],EC90 [1] [nM],microsomal CLint at 0.3 µM [3] [µL/min/mg],microsomal CLint at 0.3 µM [4] [µL/min/mg],microsomal CLint at 0.3 µM [5] [µL/min/mg],AUC(0-t) at 24 h [6] [ng·h/mL],Kp at 12 h [7],Kp at 24 h [9],EC50 [11] [nM],microsomal CLint at 0.3 µM [12] [µL/min/mg],"solubility kinetic at 24 h, 200 µM [13] [µM]",IC50 [14] [nM],"Papp A→B at 2 h, 5 µM [15] [×10⁻⁶ cm/s]","Papp B→A at 2 h, 5 µM [16] [×10⁻⁶ cm/s]","fraction unbound at 6 h, 2 µM [17]","fraction unbound at 6 h, 2 µM [18]","fraction unbound at 6 h, 2 µM [19]",CC50 [2] [nM],Ratio [8],Ratio [10],other results
COCCCOc1cc2c(nc1OC)-c1cc(=O)c(C(=O)O)cn1[C@H](C(C)C)C2,1.3,13,2,3,3,4770,6,3,7.8,5,175,21000,11.5,43.8,0.55,0.58,0.46,> 50000,191,4,"fraction unbound at 6 h, 2 µM [20]: 0.66; log(activity) [21]: 0.81; log(activity) [22]: 1; concentration at 24 h [23]: 29 ng/g; concentration at 24 h [24]: 87 ng/g; concentration at 12 h [25]: 48.3 ng/g; concentration at 12 h [26]: 140 ng/g; concentration at 12 h [27]: 129 ng/g; concentration at 12 h [28]: 63 ng/g; Kp at 24 h [29]: 3; Kp at 12 h [30]: 2.9; Kp at 12 h [31]: 2.7; Kp at 12 h [32]: 1.3"
